Experiments:
[1] = tested on: Beet Armyworm (Spodoptera exigua, LAPHEG) second instar larvae; assay: Bioassay on Beet Armyworm (BAW), 128-well diet tray assay; format: in vivo; details: for mortality at 0.05 µg/cm2: 0.05 μg/cm^2 on artificial diet; for mortality at 0.05 µg/cm2 / mortality at 0.5 µg/cm2 / mortality at 5 µg/cm2: read-out: Percent control (or mortality) BAW; for mortality at 0.5 µg/cm2: 0.5 μg/cm^2 on artificial diet; for mortality at 5 µg/cm2: 5 μg/cm^2 on artificial diet; for pest or weed control at 50 µg/cm2: Beet Armyworm, Table ABC Biological Results, read-out: BAW rating
Protocol: (§1) Certain molecules disclosed in this document were tested against BAW, CEW, and CL using procedures described in the following examples. In the reporting of the results, the “BAW, CEW, & CL Rating Table” was used (See Table Section).
Bioassays on BAW were conducted using a 128-well diet tray assay. one to five second instar BAW larvae were placed in each well (3 mL) of the diet tray that had been previously filled with 1 mL of artificial diet to which 50 μg/cm^2 of the test molecule (dissolved in 50 μL of 90:10 acetone-water mixture) had been applied (to each of eight wells) and then allowed to dry. Trays were covered with a clear self-adhesive cover and held at 25° C., 14:10 light-dark for five to seven days. Percent mortality was recorded for the larvae in each well; activity in the eight wells was then averaged. The results are indicated in the table entitled “Table ABC: Biological Results” (See Table Section).
(§2) Bioassays on BAW and CL were conducted according to the procedures outlined in Example A: Bioassays on Beet Armyworm (“BAW”) and Cabbage Looper (“CL”) using the indicated concentrations.

[2] = tested on: Cabbage Looper (Trichoplusia ni, TRIPNI) second instar larvae; assay: Bioassay on Cabbage Looper (CL), 128-well diet tray assay; format: in vivo; details: for mortality at 0.05 µg/cm2: 0.05 μg/cm^2 on artificial diet; for mortality at 0.05 µg/cm2 / mortality at 0.5 µg/cm2 / mortality at 5 µg/cm2: read-out: Percent control (or mortality) CL; for mortality at 0.5 µg/cm2: 0.5 μg/cm^2 on artificial diet; for mortality at 5 µg/cm2: 5 μg/cm^2 on artificial diet; for pest or weed control at 50 µg/cm2: Cabbage Looper, Table ABC Biological Results, read-out: CL rating
Protocol: as §1
Bioassays on CL were conducted using a 128-well diet tray assay. one to five second instar CL larvae were placed in each well (3 mL) of the diet tray that had been previously filled with 1 mL of artificial diet to which 50 μg/cm^2 of the test molecule (dissolved in 50 μL of 90:10 acetone-water mixture) had been applied (to each of eight wells) and then allowed to dry. Trays were covered with a clear self-adhesive cover and held at 25° C., 14:10 light-dark for five to seven days. Percent mortality was recorded for the larvae in each well; activity in the eight wells was then averaged. The results are indicated in the table entitled “Table ABC: Biological Results” (See Table Section).
as §2

Structure (SMILES) | mortality at 0.05 µg/cm2 [1] [%] | mortality at 0.5 µg/cm2 [1] [%] | mortality at 5 µg/cm2 [1] [%] | pest or weed control at 50 µg/cm2 [1] [%] | mortality at 0.05 µg/cm2 [2] [%] | mortality at 0.5 µg/cm2 [2] [%] | mortality at 5 µg/cm2 [2] [%] | pest or weed control at 50 µg/cm2 [2] [%]
C[C@H](NC(=O)CC(F)(F)F)NC(=O)c1ccc(/C(F)=C/C(c2cc(Cl)c(Cl)c(Cl)c2)C(F)(F)F)cc1C(F)(F)F (stereo partly drawn) [F5, 4-((Z)-1,4,4,4-Tetrafluoro-3-(3,4,5-trichlorophenyl)but-1-en-1-yl)-2-(trifluoromethyl)-N—((R)-1-(3,3,3-trifluoropropanamido)ethyl)benzamide] | 100 | 100 | 100 | 50 to 100 | 100 | 100 | 100 | 50 to 100
C[C@@H](NC(=O)c1ccc(/C(F)=C/C(c2cc(Cl)c(Cl)c(Cl)c2)C(F)(F)F)cc1C(F)(F)F)NC(=O)C1(C#N)CC1 (stereo partly drawn) [PF31, N—((S)-1-(1-Cyanocyclopropane-1-carboxamido)ethyl)-4-((Z)-1,4,4,4-tetrafluoro-3-(3,4,5-trichlorophenyl)but-1-en-1-yl)-2-(trifluoromethyl)benzamide] |  |  |  | 50 to 100 |  |  |  | 50 to 100
Cc1cc(/C(F)=C/C(c2cc(Cl)c(Cl)c(Cl)c2)C(C)(F)F)ccc1C(=O)N[C@H](C)NC(=O)CC(F)(F)F (stereo partly drawn) [F6, 2-Methyl-4-((Z)-1,4,4-trifluoro-3-(3,4,5-trichlorophenyl)pent-1-en-1-yl)-N—((R)-1-(3,3,3-trifluoropropanamido)ethyl)benzamide] |  |  |  | 50 to 100 |  |  |  | 50 to 100
C[C@H](NC(=O)CC(F)(F)F)NC(=O)c1ccc(/C(F)=C/C(c2cc(Cl)c(Cl)c(Cl)c2)C(F)(F)F)cc1Br (stereo partly drawn) [F4, 2-Bromo-4-((Z)-1,4,4,4-tetrafluoro-3-(3,4,5-trichlorophenyl)but-1-en-1-yl)-N—((R)-1-(3,3,3-trifluoropropanamido)ethyl)benzamide] | 100 | 100 | 100 | 50 to 100 | 100 | 100 | 100 | 50 to 100
C[C@H](NC(=O)CCC(F)(F)F)NC(=O)c1ccc(/C(F)=C/C(c2cc(Cl)c(Cl)c(Cl)c2)C(F)(F)F)cc1Br (stereo partly drawn) [F3, 2-Bromo-4-((Z)-1,4,4,4-tetrafluoro-3-(3,4,5-trichlorophenyl)but-1-en-1-yl)-N—((R)-1-(4,4,4-trifluorobutanamido)ethyl)benzamide] | 100 | 100 | 100 | 50 to 100 | 100 | 100 | 100 | 50 to 100
CC[C@H](NC(=O)CC(F)(F)F)NC(=O)c1ccc(/C(F)=C/C(c2cc(Cl)c(Cl)c(Cl)c2)C(F)(F)F)cc1C(F)(F)F (stereo partly drawn) [F35, 4-((Z)-1,4,4,4-Tetrafluoro-3-(3,4,5-trichlorophenyl)but-1-en-1-yl)-2-(trifluoromethyl)-N—((R)-1-(3,3,3-trifluoropropanamido)propyl)benzamide] |  |  |  | 50 to 100 |  |  |  | 50 to 100
C[C@H](NC(=O)CC(F)(F)F)NC(=O)c1ccc(/C(F)=C/C(c2ccc(Br)c(Cl)c2)C(F)(F)F)cc1C(F)(F)F (stereo partly drawn) [PF8, 4-((Z)-3-(4-Bromo-3-chlorophenyl)-1,4,4,4-tetrafluorobut-1-en-1-yl)-2-(trifluoromethyl)-N—((R)-1-(3,3,3-trifluoropropanamido)ethyl)benzamide] |  |  |  | 50 to 100 |  |  |  | 50 to 100
C[C@@H](NC(=O)c1ccc(/C(F)=C/C(c2cc(Cl)c(Cl)c(Cl)c2)C(F)(F)F)cc1C(F)(F)F)NC(=O)C1CC1 (stereo partly drawn) [F27, N—((R)-1-(cyclopropanecarboxamido)ethyl)-4-((Z)-1,4,4,4-tetrafluoro-3-(3,4,5-trichlorophenyl)but-1-en-1-yl)-2-(trifluoromethyl)benzamide] |  |  |  | 50 to 100 |  |  |  | 50 to 100
C[C@H](NC(=O)CC(F)(F)F)NC(=O)c1ccc(/C(F)=C/C(c2cc(Cl)c(Cl)c(Cl)c2)C(C)(F)F)cc1C(F)(F)F (stereo partly drawn) [F8, 4-((Z)-1,4,4-Trifluoro-3-(3,4,5-trichlorophenyl)pent-1-en-1-yl)-2-(trifluoromethyl)-N—((R)-1-(3,3,3-trifluoropropanamido)ethyl)benzamide] |  |  |  | 50 to 100 |  |  |  | 50 to 100
C[C@H](NC(=O)CC(F)(F)F)NC(=O)c1ccc(/C(F)=C/C(c2cc(Cl)c(Cl)c(Cl)c2)C(F)(F)F)cc1Cl (stereo partly drawn) [F7, 2-Chloro-4-((Z)-1,4,4,4-tetrafluoro-3-(3,4,5-trichlorophenyl)but-1-en-1-yl)-N—((R)-1-(3,3,3-trifluoropropanamido)ethyl)benzamide] | 79 | 100 | 100 | 50 to 100 | 100 | 100 | 100 | 50 to 100
C[C@H](NC(=O)CC(F)(F)F)NC(=O)c1ccc(/C(F)=C/C(c2cc(Cl)c(Cl)c(Cl)c2)C(F)(F)F)cc1 (stereo partly drawn) [FC1, 4-((Z)-1,4,4,4-Tetrafluoro-3-(3,4,5-trichlorophenyl)but-1-en-1-yl)-N—((R)-1-(3,3,3-trifluoropropanamido)ethyl)benzamide, reference compound] | 0 | 0 | 7 |  | 0 | 0 | 100 | 
C[C@H](NC(=O)CCC(F)(F)F)NC(=O)c1ccc(/C(F)=C/C(c2cc(Cl)c(Cl)c(Cl)c2)C(F)(F)F)cc1 (stereo partly drawn) [FC2, 4-((Z)-1,4,4,4-Tetrafluoro-3-(3,4,5-trichlorophenyl)but-1-en-1-yl)-N—((R)-1-(4,4,4-trifluorobutanamido)ethyl)benzamide, reference compound] | 0 | 0 | 100 |  | 0 | 6 | 100 | 
C[C@H](NC(=O)CCC(F)(F)F)NC(=O)c1ccc(/C(F)=C/C(c2cc(Cl)c(Cl)c(Cl)c2)C(C)(F)F)cc1C(F)(F)F (stereo partly drawn) [F10, 4-((Z)-1,4,4-Trifluoro-3-(3,4,5-trichlorophenyl)pent-1-en-1-yl)-N—((R)-1-(4,4,4-trifluorobutanamido)ethyl)-2-(trifluoromethyl)benzamide] |  |  |  | 50 to 100 |  |  |  | 50 to 100
C[C@H](NC(=O)CCC(F)(F)F)NC(=O)c1ccc(/C(F)=C/C(c2cc(Cl)c(Cl)c(Cl)c2)C(F)(F)F)cc1C(F)(F)F (stereo partly drawn) [F1, 4-((Z)-1,4,4,4-tetrafluoro-3-(3,4,5-trichlorophenyl)but-1-en-1-yl)-N—((R)-1-(4,4,4-trifluorobutanamido)ethyl)-2-(trifluoromethyl)benzamide] | 100 | 100 | 100 | 50 to 100 | 100 | 100 | 100 | 50 to 100
C[C@H](NC(=O)CC(F)(F)F)NC(=O)c1ccc(/C(F)=C/C(c2ccc(Cl)c(Cl)c2)C(C)(F)F)cc1C(F)(F)F (stereo partly drawn) [F39, 4-((Z)-3-(3,4-Dichlorophenyl)-1,4,4-trifluoropent-1-en-1-yl)-2-(trifluoromethyl)-N—((R)-1-(3,3,3-trifluoropropanamido)ethyl)benzamide] |  |  |  | 50 to 100 |  |  |  | 50 to 100
C[C@H](NC(=O)CC(F)(F)F)NC(=O)c1ccc(/C(F)=C/C(c2ccc(Cl)c(Br)c2)C(F)(F)F)cc1C(F)(F)F (stereo partly drawn) [F37, 4-((Z)-3-(3-Bromo-4-chlorophenyl)-1,4,4,4-tetrafluorobut-1-en-1-yl)-2-(trifluoromethyl)-N—((R)-1-(3,3,3-trifluoropropanamido)ethyl)benzamide] |  |  |  | 50 to 100 |  |  |  | 50 to 100
C[C@@H](NC(=O)c1ccc(/C(F)=C/C(c2cc(Cl)c(Cl)c(Cl)c2)C(F)(F)F)cc1C(F)(F)F)NS(=O)(=O)CC(F)(F)F (stereo partly drawn) [F28, 4-((Z)-1,4,4,4-tetrafluoro-3-(3,4,5-trichlorophenyl)but-1-en-1-yl)-N—((S)-1-(2,2,2-trifluoroethylsulfonamido)ethyl)-2-(trifluoromethyl)benzamide] |  |  |  | 50 to 100 |  |  |  | 50 to 100

From US9924716B2, “Molecules having pesticidal utility, and intermediates, compositions, and processes, related thereto” (Dow AgroSciences LLC, priority 2016, dated 2018)
